We go through 19 molecules from patent US9045493B2, “Furo[3,2-b]- and thieno[3,2-b]pyridin derivatives” (Merck Patent GmbH, priority 2012, dated 2015).

In experiment [1] the target is T1, TANK binding kinase (TBK1) (Homo sapiens, UniProt Q9UHD2).
T1 sequence (Q9UHD2 1-729): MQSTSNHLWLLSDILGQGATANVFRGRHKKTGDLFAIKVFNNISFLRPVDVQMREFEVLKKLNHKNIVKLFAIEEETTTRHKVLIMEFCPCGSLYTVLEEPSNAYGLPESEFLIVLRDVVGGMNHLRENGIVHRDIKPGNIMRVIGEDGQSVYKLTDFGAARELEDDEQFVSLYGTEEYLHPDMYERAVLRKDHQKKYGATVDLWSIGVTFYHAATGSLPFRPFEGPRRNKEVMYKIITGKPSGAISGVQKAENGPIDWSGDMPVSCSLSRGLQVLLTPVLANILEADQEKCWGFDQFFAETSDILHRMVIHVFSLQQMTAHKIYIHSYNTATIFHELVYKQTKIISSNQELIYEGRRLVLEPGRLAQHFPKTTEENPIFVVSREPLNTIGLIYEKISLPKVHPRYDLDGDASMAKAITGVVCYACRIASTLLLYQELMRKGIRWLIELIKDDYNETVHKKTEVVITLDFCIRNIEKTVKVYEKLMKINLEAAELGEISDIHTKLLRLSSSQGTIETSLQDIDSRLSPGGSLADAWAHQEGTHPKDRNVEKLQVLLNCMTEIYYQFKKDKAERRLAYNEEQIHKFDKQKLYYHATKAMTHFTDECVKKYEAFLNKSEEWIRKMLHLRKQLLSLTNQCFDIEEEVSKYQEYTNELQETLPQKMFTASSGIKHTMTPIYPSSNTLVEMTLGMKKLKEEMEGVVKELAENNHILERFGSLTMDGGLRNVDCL
The experiment is described as follows: TBK1 enzyme assay (384-well Flashplate kinase assay). The format is biochemical. The conditions noted are these: 10 μM ATP, 120 Min at 30° C. As for the experimental part:
The kinase assay is performed as 384-well Flashplate assay (for e.g. Topcount measurement.
0.6 nM TANK binding kinase (TBK1), 800 nM biotinylated MELK-derived peptide (Biotin-Ah-Ah-[…]) and 10 μM ATP (spiked with 0.25 μCi ^33P-ATP/well) are incubated in a total volume of 50 μl (10 mM MOPS, 10 mM Mg-acetat, 0.1 mM EGTA, 1 mM DTT, 0.02% Brij35, 0.1% BSA, pH 7.5) with or without test compound for 120 Min at 30° C. The reaction is stopped with 25 μl 200 mM EDTA. After 30 Min at room temperature the liquid is removed and each well washed thrice with 100 μl 0.9% sodium chloride solution. Nonspecific reaction is determined in presence of 100 nM Staurosporine. Radioactivity is measured in a Topcount (PerkinElmer). Results (e.g. IC50-values) are calculated with program tools provided by the IT-department (e.g. AssayExplorer, Symyx).

Experiment [2] deals with T2, IKKε (Homo sapiens, UniProt Q14164).
T2 sequence (Q14164 1-716): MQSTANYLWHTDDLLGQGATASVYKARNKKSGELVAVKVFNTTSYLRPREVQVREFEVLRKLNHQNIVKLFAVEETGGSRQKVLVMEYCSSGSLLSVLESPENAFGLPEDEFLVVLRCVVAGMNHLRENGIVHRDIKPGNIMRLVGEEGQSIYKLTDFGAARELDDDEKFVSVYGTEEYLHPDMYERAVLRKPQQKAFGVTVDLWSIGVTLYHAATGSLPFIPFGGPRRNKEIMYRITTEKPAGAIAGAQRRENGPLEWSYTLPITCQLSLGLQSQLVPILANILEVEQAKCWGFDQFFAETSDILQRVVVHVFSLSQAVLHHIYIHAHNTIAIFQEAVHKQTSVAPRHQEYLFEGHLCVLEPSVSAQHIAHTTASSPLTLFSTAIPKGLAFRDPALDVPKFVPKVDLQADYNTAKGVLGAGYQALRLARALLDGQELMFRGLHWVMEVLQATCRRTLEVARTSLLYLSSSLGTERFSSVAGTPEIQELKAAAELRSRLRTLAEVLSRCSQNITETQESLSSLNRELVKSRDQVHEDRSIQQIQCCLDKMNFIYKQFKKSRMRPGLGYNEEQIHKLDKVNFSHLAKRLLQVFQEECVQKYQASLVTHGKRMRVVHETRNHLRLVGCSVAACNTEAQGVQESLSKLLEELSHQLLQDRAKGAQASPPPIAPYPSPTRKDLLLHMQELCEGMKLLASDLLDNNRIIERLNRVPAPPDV
Kind of experiment: IKKε kinase assay (384-well Flashplate). The format is biochemical. The conditions noted are these: 10 μM ATP, 2 hours at 30° C.; read-out: IKKε enzyme assay IC50. On the procedure: The kinase assay is performed either as 384-well Flashplate assay (for e.g. Topcount measurement).
1 nM IKKε, 800 nM biotinylated IκBα(19-42) peptide (Biotin-C6-C6-[…]) and 10 μM ATP (spiked with 0.3 μCi ^33P-ATP/well) are incubated in a total volume of 50 μl (10 mM MOPS, 10 mM Mg-acetat, 0.1 mM EGTA, 1 mM Dithiothreitol, 0.02% Brij35, 0.1% BSA, 0.1% BioStab, pH 7.5) with or without test compound for 2 hours at 30° C. The reaction is stopped with 25 μl 200 mM EDTA. After 30 Min at room temperature the liquid is removed and each well washed thrice with 100 μl 0.9% sodium chloride solution. […] Radioactivity is measured with Topcount (PerkinElmer). Results (e.g. IC50-values) are calculated with program tools provided by the IT-department (e.g. AssayExplorer, Symyx).

Molecules are shown by their SMILES.

One may read the IC50 as the concentration needed to halve the response being measured.

Turning to `N#Cc1cc(-c2ccnc3cc(-c4ccc(N5CCOCC5)cc4)oc23)ccc1OC1CCOCC1` [Compound A1, 5-[2-(4-Morpholin-4-yl-phenyl)-furo[3,2-b]pyridin-7-yl]-2-(tetrahydro-pyran-4-yloxy)-benzonitrile], the IC50 in experiment [1] and in experiment [2] was 3 to 50 µM throughout.
`N#Cc1cc(-c2ccnc3cc(-c4cccc(N5CCOCC5)c4)oc23)ccc1OC1CCOCC1` [Compound A2, 5-[2-(3-Morpholin-4-yl-phenyl)-furo[3,2-b]pyridin-7-yl]-2-(tetrahydro-pyran-4-yloxy)-benzonitrile]: the IC50 in experiment [1] and in experiment [2] was below 0.3 µM throughout.
On to `CCN(CCOC)C(=O)c1ccc(-c2cc3nccc(-c4ccc(OC5CCOCC5)c(C#N)c4)c3o2)cc1` [Compound A3, 4-{7-[3-cyano-4-(tetrahydro-pyran-4-yloxy)-phenyl]-furo[3,2-b]pyridin-2-yl}-N-ethyl-N-(2-methoxy-ethyl)-benzamide], for which the IC50 in experiment [1] and in experiment [2] was below 0.3 µM in each case.
Turning to `CCOC(=O)c1ccc(-c2cc3nccc(-c4ccc(OC5CCOCC5)c(C#N)c4)c3o2)cc1` [Compound A4, 4-{7-[3-cyano-4-(tetrahydro-pyran-4-yloxy)-phenyl]-furo[3,2-b]pyridin-2-yl}-benzoic acid ethyl ester], the IC50 in experiment [1] and in experiment [2] was 0.3 to 3 µM each time.
For `COc1ccccc1-c1cc2nccc(-c3ccc(OC4CCOCC4)c(C#N)c3)c2o1` [Compound A5, 5-[2-(2-methoxy-phenyl)-furo[3,2-b]pyridin-7-yl]-2-(tetrahydro-pyran-4-yloxy)-benzonitrile], the IC50 in experiment [1] and in experiment [2] was below 0.3 µM in each case.
With `COc1cccc(-c2cc3nccc(-c4ccc(OC5CCOCC5)c(C#N)c4)c3o2)c1` [Compound A6, 5-[2-(3-methoxy-phenyl)-furo[3,2-b]pyridin-7-yl]-2-(tetrahydro-pyran-4-yloxy)-benzonitrile], the IC50 in experiment [1] and in experiment [2] was 0.3 to 3 µM throughout.
For the molecule `COc1ccc(-c2cc3nccc(-c4ccc(OC5CCOCC5)c(C#N)c4)c3o2)cc1` [Compound A7, 5-[2-(4-methoxy-phenyl)-furo[3,2-b]pyridin-7-yl]-2-(tetrahydro-pyran-4-yloxy)-benzonitrile], the IC50 in experiment [1] and in experiment [2] was 0.3 to 3 µM in each case.
On to `COCCn1cc(-c2cc3nccc(-c4ccc(OC5CCOCC5)c(C#N)c4)c3o2)cn1` [Compound A8, 5-{2-[1-(2-methoxy-ethyl)-1H-pyrazol-4-yl]-furo[3,2-b]pyridin-7-yl}-2-(tetrahydro-pyran-4-yloxy)-benzonitrile], for which the IC50 in experiment [1] was 3 to 50 µM; in experiment [2], 0.3 to 3 µM.
With `CN1CCN(c2cccc(-c3cc4nccc(-c5ccc(OC6CCOCC6)c(C#N)c5)c4o3)c2)CC1` [Compound A9, 5-{2-[3-(4-methyl-piperazin-1-yl)-phenyl]-furo[3,2-b]pyridin-7-yl}-2-(tetrahydro-pyran-4-yloxy)-benzonitrile], the IC50 in experiment [1] and in experiment [2] was below 0.3 µM in each case.
As for `CN1CCN(c2ccc(-c3cc4nccc(-c5ccc(OC6CCOCC6)c(C#N)c5)c4o3)cc2)CC1` [Compound A10, 5-{2-[4-(4-methyl-piperazin-1-yl)-phenyl]-furo[3,2-b]pyridin-7-yl}-2-(tetrahydro-pyran-4-yloxy)-benzonitrile], the IC50 in experiment [1] and in experiment [2] was below 0.3 µM in each case.
`N#Cc1cc(-c2ccnc3cc(-c4cccc5[nH]cnc45)oc23)ccc1OC1CCOCC1` [Compound A13, 5-[2-(1H-benzoimidazol-4-yl)-furo[3,2-b]pyridin-7-yl]-2-(tetrahydro-pyran-4-yloxy)-benzonitrile]: the IC50 in experiment [1] and in experiment [2] was 0.3 to 3 µM throughout.
`N#Cc1cc(-c2ccnc3cc(-c4ccc5[nH]c(=O)[nH]c5c4)oc23)ccc1OC1CCOCC1` [Compound A14, 5-[2-(2-oxo-2,3-dihydro-1H-benzoimidazol-5-yl)-furo[3,2-b]pyridin-7-yl]-2-(tetrahydro-pyran-4-yloxy)-benzonitrile]: the IC50 in experiment [1] and in experiment [2] was 3 to 50 µM in each case.
Regarding `CNCCNC(=O)c1ccc(-c2cc3nccc(-c4ccc(OC5CCOCC5)c(C#N)c4)c3o2)cc1` [Compound A15, 4-{7-[3-cyano-4-(tetrahydro-pyran-4-yloxy)-phenyl]-furo[3,2-b]pyridin-2-yl}-N-(2-methylamino-ethyl)-benzamide], the IC50 in experiment [1] was 0.3 to 3 µM; in experiment [2] it was below 0.3 µM.
For `N#Cc1cc(-c2ccnc3cc(-c4ccc(C(=O)O)cc4)oc23)ccc1OC1CCOCC1` [Compound A16a, 4-{7-[3-Cyano-4-(tetrahydro-pyran-4-yloxy)-phenyl]-furo[3,2-b]pyridin-2-yl}-benzoic acid], in that order: 0.3 to 3 µM and 0.3 to 3 µM.
Take `CN1CCN(C(=O)c2ccc(-c3cc4nccc(-c5ccc(OC6CCOCC6)c(C#N)c5)c4o3)cc2)CC1` [Compound A17, 5-{2-[4-(4-Methyl-piperazine-1-carbonyl)-phenyl]-furo[3,2-b]pyridin-7-yl}-2-(tetrahydro-pyran-4-yloxy)-benzonitrile]: the IC50 in experiment [1] and in experiment [2] was below 0.3 µM each time.
Take `N#Cc1cc(-c2ccnc3cc(-c4ccc(C(N)=O)cc4)oc23)ccc1OC1CCOCC1` [Compound A18, 4-{7-[3-cyano-4-(tetrahydro-pyran-4-yloxy)-phenyl]-furo[3,2-b]pyridin-2-yl}-benzamide]: the IC50 in experiment [1] and in experiment [2] was 3 to 50 µM in each case.
Consider `CNC(=O)c1ccc(-c2cc3nccc(-c4ccc(OC5CCOCC5)c(C#N)c4)c3o2)cc1` [Compound A19, 4-{7-[3-cyano-4-(tetrahydro-pyran-4-yloxy)-phenyl]-furo[3,2-b]pyridin-2-yl}-N-methyl-benzamide], for which the IC50 in experiment [1] and in experiment [2] was 0.3 to 3 µM each time.
With `CCNC(=O)c1ccc(-c2cc3nccc(-c4ccc(OC5CCOCC5)c(C#N)c4)c3o2)cc1` [Compound A20, 4-{7-[3-cyano-4-(tetrahydro-pyran-4-yloxy)-phenyl]-furo[3,2-b]pyridin-2-yl}-N-ethyl-benzamide], the IC50 in experiment [1] and in experiment [2] was 0.3 to 3 µM throughout.
Take `CC(C)(C)OCCNC(=O)c1ccc(-c2cc3nccc(-c4ccc(OC5CCOCC5)c(C#N)c4)c3o2)cc1` [Compound A21, N-(2-tert-butoxy-ethyl)-4-{7-[3-cyano-4-(tetrahydro-pyran-4-yloxy)-phenyl]-furo[3,2-b]pyridin-2-yl}-benzamide]: the IC50 in experiment [1] and in experiment [2] was 0.3 to 3 µM throughout.
